Laboratory results as given in patent US4439434A, “Cephalosporin derivative and pharmaceutical composition containing the derivative” (Kureha Kagaku Kogyo Kabushiki Kaisha, priority 1981, dated 1984).
In brackets after ≈: the same amount, converted by molar mass.

Legend:
[1] = test system: Pseudomonas aeruginosa; test: Effect on the intestinal bacterial colonies: Pseudomonas aeruginosa in feces; type: in vivo; conditions: mice, oral 500 mg/kg/day for two consecutive days, feces one day after administration
Description: (§1) Each of the cephalosporin derivatives of the invention prepared in Examples 1 to 10 was orally administered to mice (one group consisting of five female ICR mice of 6-week-old) for two consecutive days at a dose of 500 mg/kg/day.
(§2) Before and one day after the administration, feces of each mouse were collected and diluted with an anaerobic diluent (phosphoric buffer solution) of 100 times volume and the diluted feces were ground. 0.1 ml of the diluted and ground feces was smeared on each culture medium shown in Table 1 and cultured aerobically or anaerobically (according to the anaerobic glove box method) under each condition shown in Table 1 and the number of each bacterium shown in Table 1 was counted.
NAC agar aerobic, 37° C.,

[2] = test system: Streptococcus spp.; test: Effect on the intestinal bacterial colonies: Streptococcus spp. in feces; type: in vivo; conditions: mice, oral 500 mg/kg/day for two consecutive days, feces one day after administration
Description: as §1, §2
TATAC agar aerobic, 37° C.,

[3] = test system: Lactobacillus acidophilus; test: Effect on the intestinal bacterial colonies: Lactobacillus acidophilus in feces; type: in vivo; conditions: mice; for Logarithmic value of the number of bacterial cells per one g of feces, L. acidophilus: oral 500 mg/kg/day for two consecutive days, feces one day after administration
Description: as §1, §2
Lactobacillus acidophilus
LBS agar anaerobic, 37° C.,

[4] = test system: Lactobacillus bifidus; test: Effect on the intestinal bacterial colonies: Lactobacillus bifidus in feces; type: in vivo; conditions: mice, oral 500 mg/kg/day for two consecutive days, feces one day after administration
Description: as §1, §2
BS agar anaerobic, 37° C.,

[5] = test system: Escherichia coli; test: Effect on the intestinal bacterial colonies: Escherichia coli in feces; type: in vivo; conditions: mice; for Logarithmic value of the number of bacterial cells per one g of feces, E. coli: oral 500 mg/kg/day for two consecutive days, feces one day after administration
Description: as §1, §2
DHL agar aerobic, 37° C.,

[6] = test system: Bacteroides; test: Effect on the intestinal bacterial colonies: Bacteroides in feces; type: in vivo; conditions: mice, oral 500 mg/kg/day for two consecutive days, feces one day after administration
Description: as §1, §2
Bacteroides NBGT agar anaerobic, 37° C.,

[7] = test system: Staphylococcus aureus IAM 1011; test: Activation by rat liver homogenate (S-9 mix), proliferation-inhibiting circle, penicillin cup method; type: cell-based; conditions: incubated with rat liver S-9 mix, 37° C. 20 min; circle diameter relative to the starting compound
Description: As an activating enzyme of metabolism, a rat liver homogenate (S-9, manufactured by Oriental Yeast Company, Japan) was used in the following composition per 1 ml (hereinafter referred to as S-9 mix). 0.1 ml of the solution of each of the cephalosporin derivatives of the invention prepared in Examples 1 to 10 at a concentration of 100 μg/ml was mixed with 0.9 ml of S-9 mix or 0.9 ml of 0.1 M phosphoric buffer solution (as a control) and the obtained mixture was incubated at 37° C. for 20 min. with shaking. Staphylococcus aureus IAM 1011 was inoculated into a Mueller-Hinton's culture medium and cultured at 37° C. for 18 hours. The culture medium was adjusted to a cell concentration of 1×10^8 per 1 ml and mixed with 50 times by volume of Mueller-Hinton's agar culture medium to obtain an agar plate. A penicillin cup of 8 mm in diameter was placed on the agar plate prepared above, and into the cup 0.1 ml of the mixture containing the cephalosporin derivative prepared above was introduced and allowed to stand at 4° C. for 2 hours, and then cultured at 37° C. for 18 hours to measure the diameter of a circle in which the proliferation of bacteria was inhibited (proliferation-inhibiting circle). In Table 4, the proliferation-inhibiting index is shown in the ratio (%) of the diameter of the proliferation-inhibiting circle obtained by using each of the cephalosporin derivatives of the invention to that obtained by using each of the starting compound in preparing each of the cephalosporin derivatives of the invention.

[8] = test system: Escherichia coli IFO 12734; test: Antibacterial activity (MIC, agar plate) against E. coli; type: cell-based; conditions: Escherichia coli IFO 12734, Mueller-Hinton agar, 37° C., 18 to 24 hours; unit assumed
Description: (§3) Antibacterial activity of each of the cephalosporin derivatives of the invention prepared in Examples 1 to 10 was examined against the following two bacteria according to the standard method of Japan Society of Chemitherapy: Escherichia coli IFO 12734 and Staphylococcus aureus IAM 1011.
(§4) Each bacterial strain was inoculated into the Mueller-Hinton's culture medium and cultured at 37° C. for 18 to 48 hours. The cultured medium was diluted so as to contain 1×10^6 cells of the bacteria per one ml, and the obtained medium was used as the bacterial specimen.
(§5) Agar plates were prepared by adding one part by weight of each solution of the cephalosporin derivative of the invention at a predetermined concentration to nine parts by weight of Mueller-Hinton's culture medium.
(§6) A loopful amount of the bacterial specimen prepared above was smeared to make a streak of about 2 cm on each agar plate prepared above and cultured at 37° C. for 18 to 24 hours.
(§7) The minimum concentration for completely inhibiting proliferation of the bacteria (referred to as MIC) was determined.

[9] = test system: Staphylococcus aureus IAM 1011; test: Antibacterial activity (MIC, agar plate) against Staph. aureus; type: cell-based; conditions: Staphylococcus aureus IAM 1011, Mueller-Hinton agar, 37° C., 18 to 24 hours; unit assumed
Description: as §3, §4, §5, §6, §7

[10] = oral 500 mg/kg/day for two days, feces

| SMILES | Logarithmic value of the number of bacterial cells per one g of feces, Ps. aeruginosa [1] | Logarithmic value of the number of bacterial cells per one g of feces, Strept. spp. [2] | Logarithmic value of the number of bacterial cells per one g of feces, L. acidophilus [3] | change in the number of Lactobacillus acidophilus [3, 10] | Logarithmic value of the number of bacterial cells per one g of feces, L. bifidus [4] | Logarithmic value of the number of bacterial cells per one g of feces, E. coli [5] | change in the number of Escherichia coli as compared to that before administration [5, 10] | Logarithmic value of the number of bacterial cells per one g of feces, Bacteroides [6] | Proliferation-inhibiting index (%) After adding S-9 mix [7] | MIC E. coli [8] | MIC Staph. aureus [9] |
| --- | --- | --- | --- | --- | --- | --- | --- | --- | --- | --- | --- |
| CC(=O)OCC1=C(C(=O)O)N2C(=O)[C@@H](NC(=O)Cc3cccs3)[C@H]2SC1 [Cephalotin, cephalotin, reference compound] | < 3.0 | 9.0 | 4.1 | decreased | 9.2 | 9.9 | increased | 7.2 | – | – | – |
| CC(=O)OCC1=C(C(=O)Nc2ccc(O)cc2)N2C(=O)C(NC(=O)Cc3cccs3)C2SC1 (centres unmarked) [Example 1, N-(4-hydroxyphenyl)-7-(thienyl-2-acetamido)cephalosporanic acid amide] | < 3.0 | 6.3 | 8.9 | – | 8.2 | 6.5 | – | 8.7 | +++ (66-100) | ≥ 100 µg/mL | ≥ 12.5 µg/mL |
| COC(=O)c1ccc(NC(=O)C2=C(COC(C)=O)CSC3C(NC(=O)Cc4cccs4)C(=O)N23)cc1 (centres unmarked) [Example 2, N-(4-carbomethoxyphenyl)-7-(thienyl-2-acetamido)cephalosporanic acid amide] | < 3.0 | 6.7 | 9.1 | – | 8.6 | 6.4 | – | 8.1 | ++ (33-66) | ≥ 25 µg/mL | 0.2 µg/mL (≈ 0.378 µM) |
| CCOC(=O)c1ccc(NC(=O)C2=C(COC(C)=O)CSC3C(NC(=O)Cc4cccs4)C(=O)N23)cc1 (centres unmarked) [Example 3, N-(4-carboethoxyphenyl)-7-(thienyl-2-acetamido)cephalosporanic acid amide] | < 3.0 | 6.5 | 9.0 | – | 8.3 | 6.5 | – | 8.1 | ++ (33-66) | ≥ 100 µg/mL | ≥ 12.5 µg/mL |
| CCCCOC(=O)c1ccc(NC(=O)C2=C(COC(C)=O)CSC3C(NC(=O)Cc4cccs4)C(=O)N23)cc1 (centres unmarked) [Example 4, N-(4-carbo-n-butoxyphenyl)-7-(thienyl-2-acetamido)cephalosporanic acid amide] | < 3.0 | 6.7 | 9.1 | – | 8.5 | 6.4 | – | 8.1 | ++ (33-66) | ≥ 100 µg/mL | ≥ 12.5 µg/mL |
| CC(=O)OCC1=C(C(=O)Nc2ccc(CC(=O)O)cc2)N2C(=O)C(NC(=O)Cc3cccs3)C2SC1 (centres unmarked) [Example 5, N-(4-carboxymethylphenyl)-7-(thienyl-2-acetamido)cephalosporanic acid amide] | < 3.0 | 6.8 | 9.1 | – | 8.4 | 6.5 | – | 8.2 | +++ (66-100) | ≥ 100 µg/mL | 1.56 µg/mL (≈ 2.95 µM) |
| COC(=O)Cc1ccc(NC(=O)C2=C(COC(C)=O)CSC3C(NC(=O)Cc4cccs4)C(=O)N23)cc1 (centres unmarked) [Example 6, N-(4-carbomethoxymethylphenyl)-7-(thienyl-2-acetamido)cephalosporanic acid amide] | < 3.0 | 6.5 | 8.9 | – | 8.3 | 6.8 | – | 8.8 | +++ (66-100) | ≥ 100 µg/mL | ≥ 12.5 µg/mL |
| CCOC(=O)Cc1ccc(NC(=O)C2=C(COC(C)=O)CSC3C(NC(=O)Cc4cccs4)C(=O)N23)cc1 (centres unmarked) [Example 7, N-(4-carboethoxymethylphenyl)-7-(thienyl-2-acetamido)cephalosporanic acid amide] | < 3.0 | 6.6 | 8.9 | – | 8.3 | 6.4 | – | 8.8 | +++ (66-100) | ≥ 100 µg/mL | 6.25 µg/mL (≈ 11.2 µM) |
| CC(=O)OCC1=C(C(=O)Nc2ccc(C(=O)NCC(=O)O)cc2)N2C(=O)C(NC(=O)Cc3cccs3)C2SC1 (centres unmarked) [Example 8, N-(4-carboxymethylcarbamoylphenyl)-7-(thienyl-2-acetamido)cephalosporanic acid amide] | < 3.0 | 6.8 | 9.1 | – | 8.5 | 6.4 | – | 8.1 | ++ (33-66) | ≥ 100 µg/mL | 12.5 µg/mL (≈ 21.8 µM) |
